Assay results taken from the NIST ThermoML archive (doi:10.1016/j.tca.2015.09.017).
± gives the expanded uncertainty stated by the source.

Conditions: 101.33 kPa, Liquid, Photoacoustic measurements

thermal diffusivity (298.15 K) [m2/s]	thermal diffusivity (308.15 K) [m2/s]	thermal diffusivity (318.15 K) [m2/s]	thermal diffusivity (328.15 K) [m2/s]	thermal diffusivity (338.15 K) [m2/s]	Structure (SMILES)
9.84e-08 ± 3.9e-09	9.73e-08 ± 3.9e-09	9.68e-08 ± 3.9e-09	9.49e-08 ± 3.8e-09	9.42e-08 ± 3.8e-09	OCCO [1,2-ethanediol]
1.49e-07 ± 6e-09	1.53e-07 ± 6e-09	1.56e-07 ± 6e-09	1.59e-07 ± 6e-09	1.61e-07 ± 6e-09	O [water]
